ChEMBL document CHEMBL1201861, “Genomics of Drug Sensitity in Cancer screening data, Wellcome Trust Sanger Institute”

Experiments:
Experiment in all cases: cells
Format in all cases: functional, cell-based
Conditions in all cases: Homo sapiens
MEL-HO = system: MEL-HO
Description: SANGER: Inhibition of human MEL-HO cell growth in a cell viability assay.

MOLT-13 = system: MOLT-13;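 note: IC50 for suppression of MOLT-13 cell growth, read out with a cell viability assay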
Description: SANGER: Inhibition of human MOLT-13 cell growth in a cell viability assay.

EFO-21 = system: EFO-21;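 note: growth inhibition of EFO-21 cells measured with a viability assay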
Description: SANGER: Inhibition of human EFO-21 cell growth in a cell viability assay.

KU-19-19 = system: KU-19-19
Description: SANGER: Inhibition of human KU-19-19 cell growth in a cell viability assay.

SNU-423 = system: SNU-423
Description: SANGER: Inhibition of human SNU-423 cell growth in a cell viability assay.

PA-1 = system: PA-1;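 note: IC50 for suppression of PA-1 cell proliferation, determined with a cell viability read-out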
Description: SANGER: Inhibition of human PA-1 cell growth in a cell viability assay.

COLO-679 = system: COLO-679
Description: SANGER: Inhibition of human COLO-679 cell growth in a cell viability assay.

Ca-Ski = system: Ca-Ski;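 note: cell viability assay measuring inhibition of Ca-Ski cell growth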
Description: SANGER: Inhibition of human Ca-Ski cell growth in a cell viability assay.

AN3-CA = system: AN3-CA;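 note: growth inhibition of human AN3-CA cells measured by a cell viability assay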
Description: SANGER: Inhibition of human AN3-CA cell growth in a cell viability assay.

A 172 = system: A 172;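 note: growth inhibition of A172 cells, measured with a cell viability readout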
Description: SANGER: Inhibition of human A172 cell growth in a cell viability assay.

COLO-792 = system: COLO-792
Description: SANGER: Inhibition of human COLO-792 cell growth in a cell viability assay.

NCI-H630 = system: NCI-H630;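 note: growth inhibition of NCI-H630 cells, read out with a cell viability assay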
Description: SANGER: Inhibition of human NCI-H630 cell growth in a cell viability assay.

NCI-H441 = system: NCI-H441;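 note: growth inhibition of NCI-H441 cells, read out with a cell viability assay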
Description: SANGER: Inhibition of human NCI-H441 cell growth in a cell viability assay.

A673 = system: A673;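 note: growth inhibition of human A673 cells, read out through a cell viability assay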
Description: SANGER: Inhibition of human A673 cell growth in a cell viability assay.

PC-3 = system: PC-3;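 note: cell viability assay measuring growth inhibition of PC-3 cells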
Description: SANGER: Inhibition of human PC-3 cell growth in a cell viability assay.

NCI-H1703 = system: NCI-H1703;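 note: growth inhibition of NCI-H1703 cells, read out via a cell viability assay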
Description: SANGER: Inhibition of human NCI-H1703 cell growth in a cell viability assay.

YKG-1 = system: YKG-1;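 note: cell growth inhibition, read out with a viability assay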
Description: SANGER: Inhibition of human YKG-1 cell growth in a cell viability assay.

HCC1954 = system: HCC1954;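 note: growth inhibition of human HCC1954 cells, read out with a cell viability assay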
Description: SANGER: Inhibition of human HCC1954 cell growth in a cell viability assay.

EFM-19 = system: EFM-19;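 note: growth inhibition of human EFM-19 cells, measured in a cell viability assay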
Description: SANGER: Inhibition of human EFM-19 cell growth in a cell viability assay.

T47D = system: T47D;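 note: growth inhibition of human T47D cells, measured with a cell viability assay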
Description: SANGER: Inhibition of human T47D cell growth in a cell viability assay.

NB17 = system: NB17;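 note: growth inhibition of NB17 cells, read out with a cell viability assay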
Description: SANGER: Inhibition of human NB17 cell growth in a cell viability assay.

OVCAR-5 = system: OVCAR-5;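 note: growth inhibition of human OVCAR-5 cells, read out with a cell viability assay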
Description: SANGER: Inhibition of human OVCAR-5 cell growth in a cell viability assay.

PC-14 = system: PC-14;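 note: cell viability assay measuring inhibition of PC-14 cell growth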
Description: SANGER: Inhibition of human PC-14 cell growth in a cell viability assay.

CHP-212 = system: CHP-212
Description: SANGER: Inhibition of human CHP-212 cell growth in a cell viability assay.

SKG-IIIa = system: SKG-IIIa;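 note: cell growth inhibition, read out with a cell viability assay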
Description: SANGER: Inhibition of human SKG-IIIa cell growth in a cell viability assay.

SW48 = system: SW48;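 note: growth inhibition of SW48 cells, read out with a cell viability assay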
Description: SANGER: Inhibition of human SW48 cell growth in a cell viability assay.

HSC-2 = system: HSC-2;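 note: growth inhibition of human HSC-2 cells, read out by a cell viability assay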
Description: SANGER: Inhibition of human HSC-2 cell growth in a cell viability assay.

NCI-H2347 = system: NCI-H2347;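 note: growth inhibition of the cell line, read out with a cell viability assay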
Description: SANGER: Inhibition of human NCI-H2347 cell growth in a cell viability assay.

HCC70 = system: HCC70;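 note: cell viability assay measuring how strongly the compound suppresses proliferation of HCC70 cells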
Description: SANGER: Inhibition of human HCC70 cell growth in a cell viability assay.

C3A = system: C3A;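 note: growth inhibition of C3A human cells, quantified with a cell viability readout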
Description: SANGER: Inhibition of human C3A cell growth in a cell viability assay.

A2780 = system: A2780;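 note: growth inhibition of A2780 cells, read out with a cell viability assay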
Description: SANGER: Inhibition of human A2780 cell growth in a cell viability assay.

A-375 = system: A-375;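 note: growth inhibition of A375 cells, read out with a cell viability assay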
Description: SANGER: Inhibition of human A375 cell growth in a cell viability assay.

MIA PaCa-2 = system: MIA PaCa-2;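 note: growth inhibition of MIA PaCa-2 cells, read out with a cell viability assay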
Description: SANGER: Inhibition of human MIA-PaCa-2 cell growth in a cell viability assay.

ME-180 = system: ME-180;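 note: cell viability assay measuring growth inhibition of ME-180 cells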
Description: SANGER: Inhibition of human ME-180 cell growth in a cell viability assay.

NB7 = system: NB7;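 note: growth inhibition of NB7 cells, read out with a cell viability assay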
Description: SANGER: Inhibition of human NB7 cell growth in a cell viability assay.

KP-4 = system: KP-4;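 note: human KP-4 cells, with growth inhibition read out through a cell viability assay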
Description: SANGER: Inhibition of human KP-4 cell growth in a cell viability assay.

G-361 = system: G-361
NY = system: NY
Description: SANGER: Inhibition of human NY cell growth in a cell viability assay.

S-117 = system: S-117
Description: SANGER: Inhibition of human S-117 cell growth in a cell viability assay.

Panc1005 = system: Panc1005;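 note: growth inhibition of human PANC-10-05 cells, measured by a cell viability assay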
Description: SANGER: Inhibition of human PANC-10-05 cell growth in a cell viability assay.

KYSE-180 = system: KYSE-180;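 note: growth inhibition of KYSE-180 cells, read out with a cell viability assay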
Description: SANGER: Inhibition of human KYSE-180 cell growth in a cell viability assay.

NCI-H1563 = system: NCI-H1563;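 note: growth inhibition of human NCI-H1563 cells, read out with a cell viability assay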
Description: SANGER: Inhibition of human NCI-H1563 cell growth in a cell viability assay.

Detroit 562 = system: Detroit 562;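 note: growth inhibition of human Detroit 562 cells, read out by a cell viability assay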
Description: SANGER: Inhibition of human Detroit562 cell growth in a cell viability assay.

KYSE-70 cell line = system: KYSE-70 cell line;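 note: cell viability assay read-out, with IC50 expressing suppression of KYSE-70 cell growth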
Description: SANGER: Inhibition of human KYSE-70 cell growth in a cell viability assay.

AU565 = system: AU565;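 note: cell viability assay measuring growth inhibition of human AU565 cells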
Description: SANGER: Inhibition of human AU565 cell growth in a cell viability assay.

SCC-4 = system: SCC-4;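 note: growth inhibition of human SCC-4 cells, read out as cell viability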
Description: SANGER: Inhibition of human SCC-4 cell growth in a cell viability assay.

DK-MG = system: DK-MG;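 note: growth inhibition of DK-MG cells, read out with a cell viability assay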
Description: SANGER: Inhibition of human DK-MG cell growth in a cell viability assay.

PANC-08-13 = system: PANC-08-13;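 note: cell growth inhibition, measured with a cell viability assay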
Description: SANGER: Inhibition of human PANC-08-13 cell growth in a cell viability assay.

BHT-101 = system: BHT-101
Description: SANGER: Inhibition of human BHT-101 cell growth in a cell viability assay.

C[C@]12O[C@H](C[C@]1(O)CO)n1c3ccccc3c3c4c(c5c6ccccc6n2c5c31)CNC4=O [LESTAURTINIB]
IC50 (MEL-HO): 120 nM
IC50 (MOLT-13): 409 nM
IC50 (EFO-21): > 2000 nM
IC50 (KU-19-19): 1330 nM
IC50 (SNU-423): 731 nM
IC50 (PA-1): 140 nM
IC50 (COLO-679): 383 nM
IC50 (Ca-Ski): > 2000 nM
IC50 (AN3-CA): 1250 nM
IC50 (A 172): 1940 nM
IC50 (COLO-792): > 2000 nM
IC50 (NCI-H630): > 2000 nM
IC50 (NCI-H441): > 2000 nM
IC50 (A673): 718 nM
IC50 (PC-3): 1710 nM
IC50 (NCI-H1703): 345 nM
IC50 (YKG-1): 325 nM
IC50 (HCC1954): > 2000 nM
IC50 (EFM-19): 151 nM
IC50 (T47D): > 2000 nM
IC50 (NB17): 382 nM
IC50 (OVCAR-5): 504 nM
IC50 (PC-14): 449 nM
IC50 (CHP-212): 82.2 nM
IC50 (SKG-IIIa): 255 nM
IC50 (SW48): 71.6 nM
IC50 (HSC-2): 1500 nM
IC50 (NCI-H2347): > 2000 nM
IC50 (HCC70): > 2000 nM
IC50 (C3A): > 2000 nM
IC50 (A2780): 94 nM
IC50 (A-375): 332 nM
IC50 (MIA PaCa-2): 862 nM
IC50 (ME-180): 737 nM
IC50 (NB7): 899 nM
IC50 (KP-4): 568 nM
IC50 (G-361): 221 nM
IC50 (NY): > 2000 nM
IC50 (S-117): 1120 nM
IC50 (Panc1005): > 2000 nM
IC50 (KYSE-180): > 2000 nM
IC50 (NCI-H1563): > 2000 nM
IC50 (Detroit 562): 236 nM
IC50 (KYSE-70 cell line): > 2000 nM
IC50 (AU565): 1650 nM
IC50 (SCC-4): 1360 nM
IC50 (DK-MG): 1100 nM
IC50 (PANC-08-13): > 2000 nM
IC50 (BHT-101): 464 nM

C[C@]1(c2nc3c(C(N)=O)cccc3[nH]2)CCCN1 [VELIPARIB]
IC50 (MEL-HO): > 5000 nM
IC50 (MOLT-13): > 5000 nM
IC50 (EFO-21): > 5000 nM
IC50 (KU-19-19): > 5000 nM
IC50 (SNU-423): > 5000 nM
IC50 (PA-1): > 5000 nM
IC50 (COLO-679): > 5000 nM
IC50 (Ca-Ski): > 5000 nM
IC50 (AN3-CA): > 5000 nM
IC50 (A 172): > 5000 nM
IC50 (COLO-792): > 5000 nM
IC50 (NCI-H630): > 5000 nM
IC50 (NCI-H441): > 5000 nM
IC50 (A673): > 5000 nM
IC50 (PC-3): > 5000 nM
IC50 (NCI-H1703): > 5000 nM
IC50 (YKG-1): > 5000 nM
IC50 (HCC1954): > 5000 nM
IC50 (EFM-19): > 5000 nM
IC50 (T47D): > 5000 nM
IC50 (NB17): > 5000 nM
IC50 (OVCAR-5): > 5000 nM
IC50 (PC-14): > 5000 nM
IC50 (CHP-212): > 5000 nM
IC50 (SKG-IIIa): > 5000 nM
IC50 (SW48): > 5000 nM
IC50 (HSC-2): > 5000 nM
IC50 (NCI-H2347): > 5000 nM
IC50 (HCC70): > 5000 nM
IC50 (C3A): > 5000 nM
IC50 (A2780): > 5000 nM
IC50 (A-375): > 5000 nM
IC50 (MIA PaCa-2): > 5000 nM
IC50 (ME-180): > 5000 nM
IC50 (NB7): > 5000 nM
IC50 (KP-4): > 5000 nM
IC50 (G-361): > 5000 nM
IC50 (NY): > 5000 nM
IC50 (S-117): > 5000 nM
IC50 (Panc1005): > 5000 nM
IC50 (KYSE-180): > 5000 nM
IC50 (NCI-H1563): > 5000 nM
IC50 (Detroit 562): > 5000 nM
IC50 (KYSE-70 cell line): > 5000 nM
IC50 (AU565): > 5000 nM
IC50 (SCC-4): > 5000 nM
IC50 (DK-MG): > 5000 nM
IC50 (PANC-08-13): > 5000 nM
IC50 (BHT-101): > 5000 nM

CC[C@]1(O)C[C@@H]2CN(CCc3c([nH]c4ccccc34)[C@@](C(=O)OC)(c3cc4c(cc3OC)N(C)[C@H]3[C@@](O)(C(=O)OC)[C@H](OC(C)=O)[C@]5(CC)C=CCN6CC[C@]43[C@@H]65)C2)C1 [VINBLASTINE]
IC50 (MEL-HO): 53.9 nM
IC50 (MOLT-13): 5.6 nM
IC50 (EFO-21): 44 nM
IC50 (KU-19-19): 43.7 nM
IC50 (SNU-423): 19.5 nM
IC50 (PA-1): 8.09 nM
IC50 (COLO-679): > 100 nM
IC50 (Ca-Ski): 4.69 nM
IC50 (AN3-CA): 9.76 nM
IC50 (A 172): 9.62 nM
IC50 (COLO-792): 25.6 nM
IC50 (NCI-H630): > 100 nM
IC50 (NCI-H441): > 100 nM
IC50 (A673): 6.88 nM
IC50 (PC-3): 33.4 nM
IC50 (NCI-H1703): 1.43 nM
IC50 (YKG-1): 5.53 nM
IC50 (HCC1954): > 100 nM
IC50 (EFM-19): 5.24 nM
IC50 (T47D): 7.71 nM
IC50 (NB17): 21.8 nM
IC50 (OVCAR-5): 13.6 nM
IC50 (PC-14): 3.53 nM
IC50 (CHP-212): 3.55 nM
IC50 (SKG-IIIa): 17.2 nM
IC50 (SW48): 6.94 nM
IC50 (HSC-2): 20.2 nM
IC50 (NCI-H2347): > 100 nM
IC50 (HCC70): 20.8 nM
IC50 (C3A): > 100 nM
IC50 (A2780): 4.61 nM
IC50 (A-375): 23.5 nM
IC50 (MIA PaCa-2): 3.39 nM
IC50 (ME-180): 4.47 nM
IC50 (NB7): > 100 nM
IC50 (KP-4): 2.37 nM
IC50 (G-361): > 100 nM
IC50 (NY): > 100 nM
IC50 (S-117): 5.58 nM
IC50 (Panc1005): 42.8 nM
IC50 (KYSE-180): 6.39 nM
IC50 (NCI-H1563): 21.5 nM
IC50 (Detroit 562): 5.53 nM
IC50 (KYSE-70 cell line): 48.4 nM
IC50 (AU565): 3.45 nM
IC50 (SCC-4): 2.39 nM
IC50 (DK-MG): 6.65 nM
IC50 (PANC-08-13): 61.5 nM
IC50 (BHT-101): 31.4 nM
